Laboratory results published in patent US20250170127A1, “RE-SENSITIZING MULTIDRUG-RESISTANT (MDR) GRAM-NEGATIVE BACTERIA TO COLISTIN USING IONOPHORES” (The Regents of the University of Colorado, a body corporate, priority 2022, published 2025).
Values after ≈ are worked out from the molar mass of the structure shown. Read-outs that look alike come from different tables or passages of the source.

Tests used:
[1] = system: E. coli AR-0349; experiment: MICs of a panel of 9 antibiotics with and without compound 3; type: cell-based; conditions: for INT (S-R interpretation): CLSI 2021, M100, Ed 31; for MIC: antibiotic alone, multidrug-resistant E. coli; for MIC (+3): in the presence of 1 μg/mL of compound 3
[2] = system: E. coli AR-0493; experiment: MIC, CLSI broth microdilution, substance alone; type: cell-based
Method: A MDR E. coli strain AR-0493 (a.k.a., ATCC BAA-3170) was obtained from the CDC and FDA Antibiotic Resistance Bank and used for the initial screen. […] Considering the difficulties on the discovery of novel antimicrobial reagents against Gram-negative bacteria, we chose to screen the fragment-based library of 3,200 compounds from TimTec (Tampa, FL). […] The screen used a modified broth microdilution assay.
These 10 compounds were tested for their MICs and minimum re-sensitizing concentrations (MRCs) in the presence colistin at 2 μg/mL in E. coli AR-0493. […] To evaluate their toxicity in mammalian cells, the present inventors treated human epithelial adenocarcinoma HeLa cells with each compound at a wide range of concentrations. […]
(§1) General Methods. MDR strains E. coli AR-0493, AR-0346, and AR-0538, Salmonella Enteritidis AR-0496, Salmonella Typhimurium AR-0635, K. pneumoniae AR-0497, A. baumannii AR-0300 and AR-0310 were all obtained from the CDC & FDA Antibiotic Resistance Isolate Bank. E. coli K-12 was a gift from the Copley lab (Department of MCD Biology, University of Colorado Boulder). HeLa cells were purchased from the ATCC. All bacterial strains were grown on trypticase soy agar supplemented with 5% sheep blood (BAP). Bacteria were then cultured in Luria-Bertani (LB) medium at 35° C. until they achieve the log phase before screening or antimicrobial testing using CAMHB media. MIC, MRC, and checkerboard analyses and mammalian growth inhibition analyses in Hela cells were performed as described previously. More details are given in Supporting information.

[3] = system: E. coli AR-0493; experiment: Minimum re-sensitizing concentration (MRC) in the presence of colistin; type: cell-based; conditions: in the presence of 2 μg/mL colistin, E. coli AR-0493
Method: These 10 compounds were tested for their MICs and minimum re-sensitizing concentrations (MRCs) in the presence colistin at 2 μg/mL in E. coli AR-0493.
The present inventors further conducted MRC screens of selected compounds from groups 2-5 in AR-0493. Compound were tested against AR-0493 with compound X+2 μg/mL Colistin.
All compounds were tested for their respective minimum resensitizing concentrations (MRCs) for colistin against E. coli. AR0493, a MDR strain from CDC and FDA Antibiotic Resistance Bank. […] For the symmetrical bisanilino series, 7a-p, electron-donating alkyl and alkoxy groups (entries 7a-g, Table 5) at various positions of the phenyl rings were investigated. […] Three asymmetric bisanilino analogs (7q-s, Table 5) were synthesized based on the SARs of the monoanilino analogs 8a-p (vide infra).
as §1

[4] = system: HeLa cells; experiment: in vitro; type: cell-based, human
Method: These 10 compounds were tested for their MICs and minimum re-sensitizing concentrations (MRCs) in the presence colistin at 2 μg/mL in E. coli AR-0493. […] To evaluate their toxicity in mammalian cells, the present inventors treated human epithelial adenocarcinoma HeLa cells with each compound at a wide range of concentrations.
To evaluate the mammalian toxicity of these analogs, Applicants tested them in cell viability assay using human cervical adenocarcinoma HeLa cells. Their respective half maximal growth inhibition concentration (GI50) was calculated using KaleidaGraph. The selectivity index (SI) for each compound was also calculated as the ratio of their GI50 and MRC. […] Therefore, Applicants selected two bisanilino analogs, 7l and 7m, that bear chlorines at the meta- and para-positions, respectively, of the phenyl groups for further characterization studies. […]. […] Their mammalian toxicities were also evaluated, and SIs calculated. […] Applicants we next explored the scope of analogs 71 and 7m their colistin-potentiating activity in 8 different MDR Gram negative bacteria with diverse genetic backgrounds and resistance mechanisms (Table 7). All strains were obtained from CDC and FDA Antibiotic Resistance Bank. For example, E. coli AR-0493 and K. pneumoniae AR-0497 carry the plasmid that contains the most prevalent mcr-1 gene. E. coli AR-0538, Salmonella Typhimurium AR-0539 and AR-0635 contain the mcr-2, 3, and 4 genes, respectively. These genes encode the phosphoethanolamine transferase, which was originated form the chromosome of A. baumannii, such as AR-0310. […]. A. baumannii AR-0310 appears more sensitive to these two compounds and the MICs of colistin was reduced to 0.25 μg/mL.
as §1

[5] = Escherichia coli, AR0349, read-out: MIC

CC[C@H]1OC(=O)[C@H](C)[C@@H](O[C@H]2C[C@@](C)(OC)[C@@H](O)[C@H](C)O2)[C@H](C)[C@@H](O[C@@H]2O[C@H](C)C[C@H](N(C)C)[C@H]2O)[C@](C)(O)C[C@@H](C)CN(C)[C@H](C)[C@@H](O)[C@]1(C)O [Azithromycin]
INT (S-R interpretation) [1]: R | MIC [1, 5]: > 64 µg/mL | MIC (+3) [1]: >64 µg/mL

CC(C)(O/N=C(\C(=O)N[C@@H]1C(=O)N2C(C(=O)[O-])=C(C[n+]3ccccc3)CS[C@H]12)c1csc(N)n1)C(=O)O [Ceftazidime]
INT (S-R interpretation) [1]: R | MIC [1, 5]: > 64 µg/mL | MIC (+3) [1]: >64 µg/mL

O=C(O)c1cn(C2CC2)c2cc(N3CCNCC3)c(F)cc2c1=O [Ciprofloxacin]
MIC [1, 5]: 32 µg/mL (≈ 96.6 µM) | MIC (+3) [1]: 32 µg/mL

Cc1cccc(Nc2nc3nonc3nc2O)c1 [Compound 4]
MIC [2]: did not show either antimicrobial or RMA activity | MRC (minimum re-sensitizing concentration) [3]: did not show either antimicrobial or RMA activity

c1ccc(Nc2nc3nonc3nc2Nc2ccccc2)cc1 [Compound 7a]
MIC [2]: >64 µg/mL | MRC (minimum re-sensitizing concentration) [3]: 0.5 µg/mL | GI50 [4]: 4.4 µg/mL

Cc1ccccc1Nc1nc2nonc2nc1Nc1ccccc1C [Compound 7b]
MRC (minimum re-sensitizing concentration) [3]: 8 µg/mL

Cc1cccc(Nc2nc3nonc3nc2Nc2cccc(C)c2)c1 [Compound 7c]
MIC [2]: >64 µg/mL | MRC (minimum re-sensitizing concentration) [3]: 0.5 µg/mL | GI50 [4]: 1.5 µg/mL

Cc1ccc(Nc2nc3nonc3nc2Nc2ccc(C)cc2)cc1 [Compound 7d]
MIC [2]: >64 µg/mL | MRC (minimum re-sensitizing concentration) [3]: 0.5 µg/mL | GI50 [4]: 1.1 µg/mL

COc1ccccc1Nc1nc2nonc2nc1Nc1ccccc1OC [Compound 7e]
MRC (minimum re-sensitizing concentration) [3]: >64 µg/mL

COc1cccc(Nc2nc3nonc3nc2Nc2cccc(OC)c2)c1 [Compound 7f]
MRC (minimum re-sensitizing concentration) [3]: 2 µg/mL

COc1ccc(Nc2nc3nonc3nc2Nc2ccc(OC)cc2)cc1 [Compound 7g]
MRC (minimum re-sensitizing concentration) [3]: >64 µg/mL

Fc1cccc(Nc2nc3nonc3nc2Nc2cccc(F)c2)c1 [Compound 7i]
MIC [2]: >64 µg/mL | MRC (minimum re-sensitizing concentration) [3]: 0.5 µg/mL | GI50 [4]: 20 µg/mL

Fc1ccc(Nc2nc3nonc3nc2Nc2ccc(F)cc2)cc1 [Compound 7j]
MIC [2]: >64 µg/mL | MRC (minimum re-sensitizing concentration) [3]: 0.5 µg/mL | GI50 [4]: 9.4 µg/mL

Clc1ccccc1Nc1nc2nonc2nc1Nc1ccccc1Cl [Compound 7k]
MRC (minimum re-sensitizing concentration) [3]: 8 µg/mL

FC(F)(F)Oc1ccccc1Nc1nc2nonc2nc1Nc1ccccc1OC(F)(F)F [Compound 7n]
MRC (minimum re-sensitizing concentration) [3]: >64 µg/mL

FC(F)(F)Oc1cccc(Nc2nc3nonc3nc2Nc2cccc(OC(F)(F)F)c2)c1 [Compound 7o]
MIC [2]: >64 µg/mL | MRC (minimum re-sensitizing concentration) [3]: 0.25 µg/mL | MRC (minimum re-sensitizing concentration) ([3]; listed as 57o): 0.25 µg/mL | GI50 [4]: 43 µg/mL

FC(F)(F)Oc1cccc(Nc2nc3nonc3nc2Nc2ccccc2)c1 [Compound 7q]
MRC (minimum re-sensitizing concentration) [3]: 1 µg/mL

Cc1cccc(Nc2nc3nonc3nc2Nc2cccc(OC(F)(F)F)c2)c1 [Compound 7r]
MIC [2]: >64 µg/mL | MRC (minimum re-sensitizing concentration) [3]: 0.5 µg/mL | GI50 [4]: 12 µg/mL

COc1ccccc1Nc1nc2nonc2nc1Nc1cccc(OC(F)(F)F)c1 [Compound 7s]
MRC (minimum re-sensitizing concentration) [3]: >64 µg/mL

Oc1nc2nonc2nc1Nc1ccccc1 [Compound 8a]
MRC (minimum re-sensitizing concentration) [3]: >64 µg/mL

Cc1ccccc1Nc1nc2nonc2nc1O [Compound 8b]
MRC (minimum re-sensitizing concentration) [3]: 64 µg/mL

Cc1cccc(Nc2nc3nonc3nc2O)c1 [Compound 8c]
MRC (minimum re-sensitizing concentration) ([3]; listed as 8c (2)): 8 µg/mL

Cc1ccc(Nc2nc3nonc3nc2O)cc1 [Compound 8d]
MRC (minimum re-sensitizing concentration) [3]: 64 µg/mL

COc1ccccc1Nc1nc2nonc2nc1O [Compound 8e]
MIC [2]: >64 µg/mL | MRC (minimum re-sensitizing concentration) [3]: 4 µg/mL

COc1cccc(Nc2nc3nonc3nc2O)c1 [Compound 8f]
MRC (minimum re-sensitizing concentration) [3]: 16 µg/mL

COc1ccc(Nc2nc3nonc3nc2O)cc1 [Compound 8g]
MRC (minimum re-sensitizing concentration) [3]: >64 µg/mL

Oc1nc2nonc2nc1Nc1ccccc1F [Compound 8h]
MRC (minimum re-sensitizing concentration) [3]: 64 µg/mL

Oc1nc2nonc2nc1Nc1cccc(F)c1 [Compound 8i]
MRC (minimum re-sensitizing concentration) [3]: 64 µg/mL

Oc1nc2nonc2nc1Nc1ccc(F)cc1 [Compound 8j]
MRC (minimum re-sensitizing concentration) [3]: 32 µg/mL

Oc1nc2nonc2nc1Nc1ccccc1Cl [Compound 8k]
MRC (minimum re-sensitizing concentration) [3]: 16 µg/mL

Oc1nc2nonc2nc1Nc1cccc(Cl)c1 [Compound 8l]
MRC (minimum re-sensitizing concentration) [3]: 16 µg/mL

Oc1nc2nonc2nc1Nc1ccc(Cl)cc1 [Compound 8m]
MRC (minimum re-sensitizing concentration) [3]: 32 µg/mL

Oc1nc2nonc2nc1Nc1ccccc1OC(F)(F)F [Compound 8n]
MRC (minimum re-sensitizing concentration) [3]: >64 µg/mL

Oc1nc2nonc2nc1Nc1cccc(OC(F)(F)F)c1 [Compound 8o]
MIC [2]: >64 µg/mL | MRC (minimum re-sensitizing concentration) [3]: 4 µg/mL | GI50 [4]: 24 µg/mL

C[C@@H](O)[C@H]1C(=O)N2C(C(=O)O)=C(S[C@@H]3CN[C@H](C(=O)N(C)C)C3)[C@H](C)[C@H]12 [Meropenem]
INT (S-R interpretation) [1]: S | MIC [1, 5]: 0.25 µg/mL (≈ 0.652 µM) | MIC (+3) [1]: 0.25 µg/mL

CO[C@H]1/C=C/O[C@@]2(C)Oc3c(C)c(O)c4c(O)c(c(/C=N/N5CCN(C)CC5)c(O)c4c3C2=O)NC(=O)/C(C)=C\C=C\[C@H](C)[C@H](O)[C@@H](C)[C@@H](O)[C@@H](C)[C@H](OC(C)=O)[C@@H]1C [Rifampicin]
INT (S-R interpretation) [1]: R | MIC [1, 5]: 16 µg/mL (≈ 19.4 µM) | MIC (+3) [1]: 16 µg/mL

Cc1cccc(Nc2nc3nonc3nc2Cl)c1 [ST024336, reference compound]
MRC (minimum re-sensitizing concentration) [3]: 2 µg/mL | MRC (minimum re-sensitizing concentration) ([3]; listed as 1): > 64 µg/mL | GI50 ([4]; HeLa cells, 24 hours): 10 µg/mL

CN(C)[C@@H]1C(O)=C(C(N)=O)C(=O)[C@@]2(O)C(O)=C3C(=O)c4c(O)cccc4[C@@](C)(O)[C@H]3C[C@@H]12 [Tetracycline]
INT (S-R interpretation) [1]: R | MIC [1, 5]: > 64 µg/mL | MIC (+3) [1]: >64 µg/mL

Gentamicin
INT (S-R interpretation) [1]: S | MIC [1]: 0.5 µg/mL | MIC (+3) [1]: 0.5 µg/mL

Polymyxin B
INT (S-R interpretation) [1]: R | MIC [1]: 16 µg/mL | fold of potentiation ([1]; by 1 μg/mL of compound 3): 16 fold | MIC (+3) [1]: 1 µg/mL
